Source: patent US12077503B2, “Substituted cyclic amides and their use as herbicides” (FMC CORPORATION, priority 2015, dated 2024)

Assays:
Test in all cases: Test C preemergence
Format in all cases: in vivo
[1] = tested on: oilseed rape (Brassica napus); conditions: for Plant response rating, Oilseed Rape: scale 0 to 100, 0 no effect, 100 complete control
Method in brief: (§1)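 Preemergence: sow in loam-sand soil and treat. Postemergence: grow in peat-moss/vermiculite medium to 2–18 cm (1–4 leaves) and spray. Compound in non-phytotoxic solvent with surfactant; keep in greenhouse 13–15 d; score visually against controls, 0 (none) to 100 (full control).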

[2] = tested on: nutsedge, yellow (yellow nutsedge, Cyperus esculentus); conditions: for Plant response rating, Nutsedge, Yellow: scale 0 to 100, 0 no effect, 100 complete control
Method in brief: as §1

[3] = tested on: ryegrass, Italian (Italian ryegrass, Lolium multiflorum); conditions: for Plant response rating, Ryegrass, Italian: scale 0 to 100, 0 no effect, 100 complete control
Method in brief: as §1

[4] = tested on: lambsquarters (Chenopodium album); conditions: for Plant response rating, Lambsquarters: scale 0 to 100, 0 no effect, 100 complete control
Method in brief: as §1

[5] = tested on: blackgrass (Alopecurus myosuroides); conditions: for Plant response rating, Blackgrass: scale 0 to 100, 0 no effect, 100 complete control
Method in brief: as §1

[6] = tested on: wheat (winter wheat, Triticum aestivum); conditions: for Plant response rating, Wheat: scale 0 to 100, 0 no effect, 100 complete control
Method in brief: as §1

[7] = tested on: morningglory (Ipomoea coccinea); conditions: for Plant response rating, Morningglory: scale 0 to 100, 0 no effect, 100 complete control
Method in brief: as §1

[8] = tested on: barnyardgrass (Echinochloa crus-galli); conditions: for Plant response rating, Barnyardgrass: scale 0 to 100, 0 no effect, 100 complete control
Method in brief: as §1

[9] = tested on: waterhemp (common waterhemp, Amaranthus rudis); conditions: for Plant response rating, Waterhemp: scale 0 to 100, 0 no effect, 100 complete control
Method in brief: as §1

[10] = tested on: crabgrass, large (large crabgrass, Digitaria sanguinalis); conditions: for Plant response rating, Crabgrass, Large: scale 0 to 100, 0 no effect, 100 complete control
Method in brief: as §1

[11] = tested on: Galium (catchweed bedstraw, Galium aparine); conditions: for Plant response rating, Galium: scale 0 to 100, 0 no effect, 100 complete control
Method in brief: as §1

soybean (Glycine max) = conditions: for Plant response rating, Soybean: scale 0 to 100, 0 no effect, 100 complete control
Method in brief: as §1

[12] = tested on: ragweed (common ragweed, Ambrosia elatior); conditions: for Plant response rating, Ragweed: scale 0 to 100, 0 no effect, 100 complete control
Method in brief: as §1

corn (Zea mays) = conditions: for Plant response rating, Corn: scale 0 to 100, 0 no effect, 100 complete control
Method in brief: as §1

[13] = tested on: foxtail, giant (giant foxtail, Setaria faberii); conditions: for Plant response rating, Foxtail, Giant: scale 0 to 100, 0 no effect, 100 complete control
Method in brief: as §1

[14] = tested on: johnsongrass (Sorghum halepense); conditions: for Plant response rating, Johnsongrass: scale 0 to 100, 0 no effect, 100 complete control
Method in brief: as §1

[15] = tested on: velvetleaf (Abutilon theophrasti); conditions: for Plant response rating, Velvetleaf: scale 0 to 100, 0 no effect, 100 complete control
Method in brief: as §1

[16] = 31 g ai/ha, 0 is no effect, 100 is complete control

## O=C1NCC(c2cc(F)cc(C(F)(F)F)c2)C1C(=O)Nc1cccc(F)c1F (centres unmarked) [Compound 488]
[1]; [16]
  Plant response rating (scale of 0 to 100), Oilseed Rape: 40
[1]; 62 g ai/ha
  Plant response rating, Oilseed Rape: 45
[1]; 125 g ai/ha
  Plant response rating, Oilseed Rape: 85
[1]; 250 g ai/ha
  Plant response rating, Oilseed Rape: 90
[2]; [16]
  Plant response rating (scale of 0 to 100), Nutsedge, Yellow: 0
[2]; 62 g ai/ha
  Plant response rating, Nutsedge, Yellow: 0
[2]; 125 g ai/ha
  Plant response rating, Nutsedge, Yellow: 0
[2]; 250 g ai/ha
  Plant response rating, Nutsedge, Yellow: 0
[3]; [16]
  Plant response rating (scale of 0 to 100), Ryegrass, Italian: 5
[3]; 62 g ai/ha
  Plant response rating, Ryegrass, Italian: 35
[3]; 125 g ai/ha
  Plant response rating, Ryegrass, Italian: 70
[3]; 250 g ai/ha
  Plant response rating, Ryegrass, Italian: 65
[4]; [16]
  Plant response rating (scale of 0 to 100), Lambsquarters: 20
[4]; 62 g ai/ha
  Plant response rating, Lambsquarters: 50
[4]; 125 g ai/ha
  Plant response rating, Lambsquarters: 60
[4]; 250 g ai/ha
  Plant response rating, Lambsquarters: 60
[5]; [16]
  Plant response rating (scale of 0 to 100), Blackgrass: 0
[5]; 62 g ai/ha
  Plant response rating, Blackgrass: 50
[5]; 125 g ai/ha
  Plant response rating, Blackgrass: 90
[5]; 250 g ai/ha
  Plant response rating, Blackgrass: 85
[6]; [16]
  Plant response rating (scale of 0 to 100), Wheat: 35
[6]; 62 g ai/ha
  Plant response rating, Wheat: 35
[6]; 125 g ai/ha
  Plant response rating, Wheat: 85
[6]; 250 g ai/ha
  Plant response rating, Wheat: 90
[7]; [16]
  Plant response rating (scale of 0 to 100), Morningglory: 0
[7]; 62 g ai/ha
  Plant response rating, Morningglory: 25
[7]; 125 g ai/ha
  Plant response rating, Morningglory: 55
[7]; 250 g ai/ha
  Plant response rating, Morningglory: 60
[8]; [16]
  Plant response rating (scale of 0 to 100), Barnyardgrass: 95
[8]; 62 g ai/ha
  Plant response rating, Barnyardgrass: 90
[8]; 125 g ai/ha
  Plant response rating, Barnyardgrass: 95
[8]; 250 g ai/ha
  Plant response rating, Barnyardgrass: 95
[9]; [16]
  Plant response rating (scale of 0 to 100), Waterhemp: 25
[9]; 62 g ai/ha
  Plant response rating, Waterhemp: 40
[9]; 125 g ai/ha
  Plant response rating, Waterhemp: 75
[9]; 250 g ai/ha
  Plant response rating, Waterhemp: 80
[10]; [16]
  Plant response rating (scale of 0 to 100), Crabgrass, Large: 90
[10]; 62 g ai/ha
  Plant response rating, Crabgrass, Large: 95
[10]; 125 g ai/ha
  Plant response rating, Crabgrass, Large: 95
[10]; 250 g ai/ha
  Plant response rating, Crabgrass, Large: 100
[11]; [16]
  Plant response rating (scale of 0 to 100), Galium: 80
[11]; 62 g ai/ha
  Plant response rating, Galium: 85
[11]; 125 g ai/ha
  Plant response rating, Galium: 85
[11]; 250 g ai/ha
  Plant response rating, Galium: 85
Soybean (Glycine max); [16]
  Plant response rating (scale of 0 to 100), Soybean: 0
Soybean (Glycine max); 62 g ai/ha
  Plant response rating, Soybean: 0
Soybean (Glycine max); 125 g ai/ha
  Plant response rating, Soybean: 0
Soybean (Glycine max); 250 g ai/ha
  Plant response rating, Soybean: 10
[12]; [16]
  Plant response rating (scale of 0 to 100), Ragweed: 0
[12]; 62 g ai/ha
  Plant response rating, Ragweed: 25
[12]; 125 g ai/ha
  Plant response rating, Ragweed: 40
[12]; 250 g ai/ha
  Plant response rating, Ragweed: 70
Corn (Zea mays); [16]
  Plant response rating (scale of 0 to 100), Corn: 25
Corn (Zea mays); 62 g ai/ha
  Plant response rating, Corn: 60
Corn (Zea mays); 125 g ai/ha
  Plant response rating, Corn: 70
Corn (Zea mays); 250 g ai/ha
  Plant response rating, Corn: 85
[13]; [16]
  Plant response rating (scale of 0 to 100), Foxtail, Giant: 85
[13]; 62 g ai/ha
  Plant response rating, Foxtail, Giant: 90
[13]; 125 g ai/ha
  Plant response rating, Foxtail, Giant: 90
[13]; 250 g ai/ha
  Plant response rating, Foxtail, Giant: 95
[14]; [16]
  Plant response rating (scale of 0 to 100), Johnsongrass: 70
[14]; 62 g ai/ha
  Plant response rating, Johnsongrass: 80
[14]; 125 g ai/ha
  Plant response rating, Johnsongrass: 85
[14]; 250 g ai/ha
  Plant response rating, Johnsongrass: 90
[15]; [16]
  Plant response rating (scale of 0 to 100), Velvetleaf: 0
[15]; 62 g ai/ha
  Plant response rating, Velvetleaf: 0
[15]; 125 g ai/ha
  Plant response rating, Velvetleaf: 10
[15]; 250 g ai/ha
  Plant response rating, Velvetleaf: 20
